Data published in the supplement of paper PMC10307832.

Legend:
Test in all cases: relative viability (nuclei count vs DMSO), 5 days (fraction); higher = more cells survive
[1] = compound: COc1cc2nc(N3CCCN(C)CC3)nc(NC3CCN(Cc4ccccc4)CC3)c2cc1OC + N=C(N)NC(=N)NCCc1ccccc1 [Phenformin] (partner 250 µM)
Summary of the method: (§1)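 Lung cancer cell lines were seeded in 1536-well plates and dosed by pin tool the next day, with either a single drug or a fixed anchor-drug dose combined with five library-drug doses (not always all listed) spaced in √10 steps. Five days later, one step fixed the cells and stained their nuclei (final 0.05% Triton X-100, 1% formaldehyde, 1 ug/ml Hoechst), and nuclei were counted on 4× images. Relative viability is the nuclei count in treated wells divided by the count in vehicle wells, and each value is the median of duplicate plates.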

AZD6482 + Trametinib = compound: Cc1cc([C@@H](C)Nc2ccccc2C(=O)O)c2nc(N3CCOCC3)cc(=O)n2c1 [AZD6482] + CC(=O)Nc1cccc(-n2c(=O)n(C3CC3)c(=O)c3c(Nc4ccc(I)cc4F)n(C)c(=O)c(C)c32)c1 [Trametinib] (partner 0.02 µM)
Summary of the method: as §1

AZD6482 + Vorinostat = compound: Cc1cc([C@@H](C)Nc2ccccc2C(=O)O)c2nc(N3CCOCC3)cc(=O)n2c1 [AZD6482] + O=C(CCCCCCC(=O)Nc1ccccc1)NO [Vorinostat] (partner 1 µM)
Summary of the method: as §1

AZD6482 + Pictilisib = compound: Cc1cc([C@@H](C)Nc2ccccc2C(=O)O)c2nc(N3CCOCC3)cc(=O)n2c1 [AZD6482] + CS(=O)(=O)N1CCN(Cc2cc3nc(-c4cccc5[nH]ncc45)nc(N4CCOCC4)c3s2)CC1 [Pictilisib] (partner 1 µM)
Summary of the method: as §1

| Cell Line | relative viability ([1]; first compound 0.2 µM) | relative viability ([1]; first compound 0.6325 µM) | relative viability ([1]; first compound 2 µM) | relative viability ([1]; first compound 6.325 µM) | relative viability (AZD6482 + Trametinib; first compound 0.08 µM) | relative viability (AZD6482 + Trametinib; first compound 0.253 µM) | relative viability (AZD6482 + Trametinib; first compound 0.8 µM) | relative viability (AZD6482 + Trametinib; first compound 2.53 µM) | relative viability (AZD6482 + Trametinib; first compound 8 µM) | relative viability (AZD6482 + Vorinostat; first compound 0.08 µM) | relative viability (AZD6482 + Vorinostat; first compound 0.253 µM) | relative viability (AZD6482 + Vorinostat; first compound 0.8 µM) | relative viability (AZD6482 + Vorinostat; first compound 2.53 µM) | relative viability (AZD6482 + Vorinostat; first compound 8 µM) | relative viability (AZD6482 + Pictilisib; first compound 0.08 µM) | relative viability (AZD6482 + Pictilisib; first compound 0.253 µM) | relative viability (AZD6482 + Pictilisib; first compound 0.8 µM) | relative viability (AZD6482 + Pictilisib; first compound 2.53 µM) | relative viability (AZD6482 + Pictilisib; first compound 8 µM) |
| --- | --- | --- | --- | --- | --- | --- | --- | --- | --- | --- | --- | --- | --- | --- | --- | --- | --- | --- | --- |
| NCI-H1437 | 0.261 | 0.329 | 0.326 | 0.297 | 0.506 | 0.451 | 0.473 | 0.298 | 0.282 | 0.955 | 0.921 | 0.997 | 0.738 | 0.468 | 0.471 | 0.326 | 0.473 | 0.319 | 0.392 |
| NCI-H1650 | 0.494 | 0.612 | 0.379 | 0.369 | 0.62 | 0.455 | 0.614 | 0.546 | 0.527 | 0.512 | 0.629 | 0.805 | 0.437 | 0.632 | 0.55 | – | 0.664 | 0.398 | 0.843 |
| NCI-H1651 | 0.351 | 0.33 | 0.329 | 0.318 | 0.767 | 0.7 | 0.835 | 0.691 | 0.68 | 0.602 | 0.502 | 0.56 | 0.464 | 0.524 | 0.596 | 0.58 | 0.569 | 0.432 | 0.508 |
| NCI-H1666 | 0.545 | 0.574 | 0.542 | 0.505 | 0.766 | 0.944 | 0.808 | 0.81 | 0.835 | 0.848 | 1.04 | 1.04 | 0.813 | 1.02 | 0.437 | 0.547 | 0.558 | 0.437 | 0.405 |
| NCI-H1734 | 0.383 | 0.383 | 0.389 | 0.346 | 0.613 | 0.656 | 0.565 | 0.519 | 0.491 | 0.804 | 0.68 | 0.801 | 0.52 | 0.582 | 0.395 | 0.452 | 0.485 | 0.305 | 0.408 |
| NCI-H1755 | 0.604 | 0.628 | 0.58 | 0.574 | 0.7 | 0.75 | 0.693 | 0.542 | 0.508 | 0.691 | 0.638 | 0.742 | 0.495 | 0.566 | 0.274 | 0.317 | 0.372 | 0.213 | 0.43 |
| NCI-H1793 | 0.372 | 0.385 | 0.404 | 0.364 | 0.37 | 0.397 | 0.352 | 0.32 | 0.283 | 0.582 | 0.481 | 0.676 | 0.38 | 0.404 | 0.261 | 0.336 | 0.293 | – | 0.259 |
| NCI-H1915 | 0.371 | 0.351 | 0.374 | 0.364 | 0.257 | 0.27 | 0.29 | 0.239 | 0.226 | 0.432 | 0.467 | 0.538 | 0.4 | 0.462 | 0.886 | 0.916 | 1.03 | 0.79 | 0.909 |
| NCI-H1944 | 0.21 | 0.221 | 0.201 | 0.203 | 0.38 | 0.375 | 0.426 | 0.351 | 0.335 | 0.544 | 0.498 | 0.609 | 0.43 | 0.469 | 0.314 | 0.342 | 0.366 | 0.246 | 0.33 |
| NCI-H1975 | 0.414 | 0.431 | 0.411 | 0.389 | 0.287 | 0.32 | 0.307 | 0.278 | 0.39 | 0.638 | 0.655 | 0.743 | 0.535 | 0.482 | 0.249 | 0.275 | 0.307 | 0.274 | 0.258 |
| NCI-H1993 | 0.528 | 0.442 | 0.528 | 0.501 | 0.506 | 0.498 | 0.446 | 0.52 | 0.475 | 0.742 | 0.73 | 0.569 | 0.376 | 0.47 | 0.907 | 0.779 | – | – | 0.769 |
| NCI-H2009 | 0.471 | 0.447 | 0.56 | 0.385 | 0.181 | 0.163 | 0.21 | 0.139 | 0.185 | 0.583 | 0.775 | 0.665 | 0.501 | 0.573 | 0.71 | 0.765 | 0.871 | 0.516 | 0.743 |
| NCI-H2023 | 0.424 | 0.414 | 0.498 | 0.272 | 0.455 | 0.52 | 0.547 | 0.28 | 0.389 | 0.642 | 0.435 | 0.509 | 0.37 | 0.455 | 0.194 | 0.227 | 0.233 | 0.132 | 0.24 |
| NCI-H2085 | 0.776 | 0.743 | 0.786 | 0.641 | 0.266 | 0.231 | 0.218 | 0.223 | 0.218 | 0.557 | 0.402 | 0.517 | 0.398 | 0.341 | 0.428 | 0.359 | 0.404 | 0.33 | 0.407 |
| NCI-H2087 | 0.413 | 0.439 | 0.48 | 0.393 | 0.176 | 0.162 | 0.133 | 0.132 | 0.183 | 0.465 | 0.81 | 0.98 | 0.183 | 0.92 | 0.758 | 0.723 | 0.91 | 0.611 | 0.889 |
| NCI-H2126 | 0.493 | 0.601 | 0.538 | 0.472 | 0.538 | 0.531 | 0.448 | 0.39 | 0.351 | 0.728 | 0.703 | 0.577 | 0.389 | 0.432 | 0.446 | 0.513 | 0.494 | 0.368 | 0.483 |
| NCI-H2170 | 0.402 | 0.407 | 0.425 | 0.387 | 0.878 | 0.879 | 0.844 | 0.836 | 0.733 | 0.742 | 0.695 | 0.767 | 0.677 | 0.578 | 0.285 | 0.261 | 0.307 | 0.258 | 0.317 |
